Data: patent publication US12629363B2, “Prophylaxis and treatment of angioedema” (PHARVARIS GMBH, priority 2020, dated 2026)
Read-outs that look alike come from different tables or passages of the source.

Legend:
[1] = target: T1, cynomolgus monkey B2 receptor (Macaca fascicularis, UniProt A0A7N9CWN6); test: Antagonist potency in cells expressing cynomolgus monkey B2 receptor; format: cell-based; conditions: read-out: Kb value to antagonize BK activation
T1 sequence (A0A7N9CWN6 1-391): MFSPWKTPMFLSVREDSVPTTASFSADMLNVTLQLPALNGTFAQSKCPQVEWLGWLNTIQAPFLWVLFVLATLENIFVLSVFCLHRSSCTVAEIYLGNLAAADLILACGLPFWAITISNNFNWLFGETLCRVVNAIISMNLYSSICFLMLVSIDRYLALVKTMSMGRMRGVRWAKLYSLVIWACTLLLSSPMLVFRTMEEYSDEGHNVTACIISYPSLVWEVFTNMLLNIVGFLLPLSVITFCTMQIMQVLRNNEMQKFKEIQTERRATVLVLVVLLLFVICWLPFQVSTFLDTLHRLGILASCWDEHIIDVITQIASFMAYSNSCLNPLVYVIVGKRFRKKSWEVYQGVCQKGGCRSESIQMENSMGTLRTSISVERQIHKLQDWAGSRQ
Description: (§1) The bradykinin B2 receptor is well known for its species selective pharmacology (Paquet et al., Br. J. Pharmacol. (126), 1083-1090, 1999 (DOI: 10.1038/sj.bjp.0702403); Burgess et al., Br. J. Pharmacol. (129), 77-86, 2000 (DOI: 10.1038/sj.bjp.0703012)). […] Pharmacol. 11:916; DOI: 10.3389/fphar.2020.00916.

[2] = Ascending dose study 22-50 mg in healthy volunteers, safety and tolerability (Example 4); format: in vivo, human
mouse B2 receptor = target: T2, mouse B2 receptor (Mus musculus, UniProt P32299); test: Antagonist potency in cells expressing mouse B2 receptor; format: cell-based; conditions: compared with human B2 receptor
T2 construct: expressed in transfected cells
T2 sequence (P32299 1-392): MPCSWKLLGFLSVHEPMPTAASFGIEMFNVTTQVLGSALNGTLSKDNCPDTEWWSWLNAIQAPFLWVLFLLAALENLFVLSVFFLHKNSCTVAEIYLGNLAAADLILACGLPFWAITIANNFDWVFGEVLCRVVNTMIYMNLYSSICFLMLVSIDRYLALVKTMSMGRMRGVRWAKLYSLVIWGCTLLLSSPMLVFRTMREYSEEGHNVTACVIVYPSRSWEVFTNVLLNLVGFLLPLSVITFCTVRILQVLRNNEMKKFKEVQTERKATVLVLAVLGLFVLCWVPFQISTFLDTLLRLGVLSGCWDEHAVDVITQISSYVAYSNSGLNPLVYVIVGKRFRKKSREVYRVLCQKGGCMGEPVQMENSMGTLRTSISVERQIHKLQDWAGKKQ
Description: as §1

[3] = Single ascending dose study in healthy volunteers, safety and tolerability (Example 2); format: in vivo, human
Description: Safety was assessed by physical examination, vital signs, adverse events, safety laboratory and electrocardiogram (ECG) until 72 h post-dosing.

[4] = target: T3, endogenous human B2 receptors (Homo sapiens, UniProt P30411); test: Antagonist potency at endogenous human B2 receptors
T3 sequence (P30411 1-391): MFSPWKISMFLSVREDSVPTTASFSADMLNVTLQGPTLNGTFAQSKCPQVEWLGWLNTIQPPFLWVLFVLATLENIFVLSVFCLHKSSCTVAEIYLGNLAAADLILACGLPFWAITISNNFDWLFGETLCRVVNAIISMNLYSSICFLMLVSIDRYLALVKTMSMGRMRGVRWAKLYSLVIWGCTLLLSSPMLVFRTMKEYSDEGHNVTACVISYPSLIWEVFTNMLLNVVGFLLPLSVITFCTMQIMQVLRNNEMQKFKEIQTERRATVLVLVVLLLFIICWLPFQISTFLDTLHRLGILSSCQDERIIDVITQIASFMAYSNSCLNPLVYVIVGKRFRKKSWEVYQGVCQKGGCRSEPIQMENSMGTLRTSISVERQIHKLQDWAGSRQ

[5] = Ascending dose study 22-50 mg in healthy volunteers, PK (Example 4); format: in vivo, human
BK B2 receptor = target: T4, BK B2 receptor (Homo sapiens, UniProt P30411); test: Bradykinin challenge study, PK/PD (Example 3); format: in vivo; conditions: for Time plasma level above EC85 at a 75% confidence level / Time plasma level above EC85 at a 75% confidence level, DBP / Time plasma level above EC85 at a 75% confidence level, MAP: modeling and simulation
T4 sequence (P30411 1-391): T3 sequence (P30411 1-391)
Description: The compound (12 and 22 mg) was administered orally (p.o.) to 16 healthy volunteers. BK was injected intravenously prior to oral administration of the compound, i.e. BK predosing challenge, and at 1, 4, 8, 12 and 24 hours after oral administration (dosing) of the 12 and 22 mg single dose, respectively. BK injections were administered to induce cardiovascular responses in the volunteers. The cardiovascular responses were monitored, and blood samples were drawn over 24 hours for PK assessment. The PD outcome variables were measured from 5 min before until 5 min after each BK bolus. A % inhibition-of-the-baseline average-to-peak effect was calculated and used as the PD outcome.
Immediately after BK injection a short-lived change in blood pressure, heart rate and cardiac output can be recorded.
PK was analyzed using a two-compartment body model with first-order oral absorption and a lag time; results are shown in Table 4. For the PK/PD model a simple Emax-model with a direct link was utilized. The PK/PD model was used to simulate PK profiles (N=1000) and calculate probability of durations of effect as well as to visualize effect-time profiles; see FIGS. 4 and 5.

[6] = 22 mg, after HCHF breakfast, N = 6
[7] = 22 to 50 mg (factor 2.27 increase), after a standardized breakfast
[8] = plasma concentration, PD in BK challenge

In the case of [2H][C@@](C)(NC(=O)COC(F)F)c1cc(F)cc(Cl)c1COc1cccc2c(-c3ncnn3C)cc(C)nc12 [compound of formula (I)], the Kb [1] is reported as 1.42 nM, the “changes in vital signs, laboratory, or ECG parameters vs placebo” value ([2]; 22-50 mg single oral doses) is reported as “no clinically significant changes” and the serious adverse effects ([2]; 22-50 mg single oral doses) is reported as “no serious adverse effects reported”. For the same compound, the safety and tolerability ([2]; doses up to 40 mg under fasting and 50 mg under fed conditions) was “safe and well tolerated”, the “fold less potent towards the mouse B2 receptor” value (mouse B2 receptor) was “more than 3000 fold” and the Any adverse effects ([3]; 1 mg, fasted, N = 6) was 2 (33.3%) n (%). The “Any related adverse effects” value ([3]; 1 mg, fasted, N = 6) was 0 n (%), the “Any serious adverse effects” value ([3]; 1 mg, fasted, N = 6) was 0 n (%) and the Any adverse effects ([3]; 2 mg, fasted, N = 6) was 1 (16.7%) n (%). For the same compound, the “Any related adverse effects” value ([3]; 2 mg, fasted, N = 6) was 0 n (%), the “Any serious adverse effects” value ([3]; 2 mg, fasted, N = 6) was 0 n (%) and the Any adverse effects ([3]; 4.5 mg, fasted, N = 6) was 1 (16.7%) n (%). For the same compound, the “Any related adverse effects” value ([3]; 4.5 mg, fasted, N = 6) was 0 n (%), the “Any serious adverse effects” value ([3]; 4.5 mg, fasted, N = 6) was 0 n (%) and the Any adverse effects ([3]; 12 mg, fasted, N = 14) was 5 (35.7%) n (%). The “Any related adverse effects” value ([3]; 12 mg, fasted, N = 14) was 2 (14.3%) n (%), the “Any serious adverse effects” value ([3]; 12 mg, fasted, N = 14) was 0 n (%) and the Any adverse effects [3, 6] was 1 (16.7%) n (%). The “Any related adverse effects” value [3, 6] was 0 n (%), the “Any serious adverse effects” value [3, 6] was 0 n (%) and the Any adverse effects ([3]; 22 mg, fasted, N = 14) was 2 (14.3%) n (%). For the same compound, the “Any related adverse effects” value ([3]; 22 mg, fasted, N = 14) was 1 (7.1%) n (%), the “Any serious adverse effects” value ([3]; 22 mg, fasted, N = 14) was 0 n (%) and the “subjects with treatment-related adverse events” value ([3]; 12 or 22 mg, gastrointestinal, mild severity) was “three”. The “blood pressure fluctuations and orthostatic hypotension” value ([3]; single oral doses up to 22 mg) was “no clinically relevant fluctuations of blood pressure and no orthostatic hypotension”, the “changes in hematology, clinical chemistry, vital signs, or ECG” value ([3]; single oral doses up to 22 mg) was “no apparent trends or dose-related changes” and the safety and tolerability ([3]; single oral doses up to 22 mg) was “safe and well tolerated”. For the same compound, the “antagonist potency at endogenous human B2 receptors” value [4] was 0.35 nM, the “fold increase for mean AUC0-24h” value [5, 7] was 2.39 fold and the “fold increase for mean Cmax” value [5, 7] was 2.37 fold. The “dose proportionality of PK” value ([5]; 22 to 50 mg after a standardized breakfast) was “dose-proportional PK”, the “change in AUCinf after a standardized breakfast” value ([5]; compared to fasting conditions) was “did not show a significant change” and the “decrease in Cmax after a standardized breakfast” value ([5]; compared to fasting conditions) was 40-50%. For the same compound, the “C12h and C24h plasma concentration, fed vs fasting” value ([5]; human, in vivo) was “higher under fed conditions”, the “time stayed above EC85” value (BK B2 receptor; 12 mg oral dose) was 7 h and the “Time plasma level above EC85 at a 75% confidence level” value (BK B2 receptor; 12 mg p.o.) was 6.5 h. The “Time plasma level above EC85 at a 75% confidence level, DBP” value (BK B2 receptor; 12 mg p.o.) was 7.5 h, the “Time plasma level above EC85 at a 75% confidence level, MAP” value (BK B2 receptor; 12 mg p.o.) was 7 h and the “duration of effect relative to the 12 mg dose” value (BK B2 receptor; 22 mg oral dose) was “approximately twice as long”. The “Time plasma level above EC85 at a 75% confidence level” value (BK B2 receptor; 22 mg p.o.) was 9.5 h, the “Time plasma level above EC85 at a 75% confidence level, DBP” value (BK B2 receptor; 22 mg p.o.) was 10 h and the “Time plasma level above EC85 at a 75% confidence level, MAP” value (BK B2 receptor; 22 mg p.o.) was 10 h. The “potency relative to icatibant based on plasma concentrations” value (BK B2 receptor; BK challenge EC50/EC85) was “approximately four-fold more potent than icatibant”, the EC50 (BK B2 receptor; corrected for plasma protein binding 96.2%, read-out: free plasma concentration associated with EC50 of 2.4 ng/ml) was 0.17 nM and the “intrinsic PD potency at the K B2 receptor, fold higher than icatibant” value (BK B2 receptor; in vivo) was “about 25 fold”. The “Estimated EC85, Cardiac output” value (BK B2 receptor; [8]) was 0.00952 µg/mL, the “Estimated EC85, Composite average” value (BK B2 receptor; [8]) was 0.0138 µg/mL and the “Estimated EC85, Diastolic blood pressure” value (BK B2 receptor; [8]) was 0.01326 µg/mL. For the same compound, the “Estimated EC85, Heart rate” value (BK B2 receptor; [8]) was 0.0187 µg/mL, the EC50 (BK B2 receptor; plasma concentration, PD in BK challenge, read-out: Estimated EC50, Cardiac output (converted)) was 3.14 nM and the EC50 (BK B2 receptor; plasma concentration, PD in BK challenge, read-out: Estimated EC50, Composite average (converted)) was 4.49 nM. The EC50 (BK B2 receptor; plasma concentration, PD in BK challenge, read-out: Estimated EC50, Diastolic blood pressure (converted)) was 4.37 nM and the EC50 (BK B2 receptor; plasma concentration, PD in BK challenge, read-out: Estimated EC50, Heart rate (converted)) was 6.17 nM.
